Experimental data as given in PMC12040169 (PLOS Biology, 2025).

test: in vitro; settings: human, hela cells, % viability

Row | SMILES | viability at 28.5 h, 10 µM [%]
1 | COc1ccc(-c2cncc(N3CCN(c4cccc5[nH]ccc45)CC3)n2)cc1 [CBK066087] | 97.2
2 | COc1ccc2[nH]cc(CCNC(=O)c3cc(C)[nH]n3)c2c1 [CBK116206] | 89.8
3 | CCNC(=O)N1CC2(CCN(CCC(N)=O)CC2)c2ccccc21 [CBK144598T] | 99.6
4 | Cc1noc(C)c1CN(C)C(=O)NC1CCCc2c1cnn2CCO (stereo not drawn) [CBK306283] | 92.5
5 | CCCCN1CCC(C(=O)Oc2ccc(OC)c3ccccc23)CC1 [CBK122682] | 97.2
6 | Cc1nn(C(C)CC(=O)Nc2ccnn2C(C)C)c(C)c1Cl (stereo not drawn) [CBK281537] | 95.8
7 | CC(C)(CNC(=O)Cn1cnc2ccccc21)N1CCCCC1 [CBK281879] | 95.8
8 | COc1ccc2nc3cc(Cl)ccc3c(NCCO)c2c1 [CBK011939] | 43.8
9 | CCCCN(C(=O)CC1SC(NC2CCCCCC2)=NC1=O)c1ccccc1 (stereo not drawn) [CBK067392] | 92.4
10 | O=C(O)c1nccnc1-c1ccc(COc2ccccc2)cc1 [CBK050806] | 90.2
11 | O=C(CN1CCC(NC(=O)c2ccccc2)CC1)Nc1ccccc1 [CBK074716] | 96.7
12 | CC(C)(C)OC(=O)COc1cc2oc(=O)cc(-c3ccccc3)c2cc1Cl [CBK263729] | 87.6
13 | N#CCCCN1CCC(Oc2nccnc2OCc2cccc(Br)c2)CC1 [CBK153631] | 99.1
14 | COC(=O)c1ccccc1NC(=O)C1CCCN(S(=O)(=O)c2cc(Cl)ccc2Cl)C1 (stereo not drawn) [CBK268797] | 101
15 | CC(=O)N1CCc2sccc2C1c1ccc(NCc2ccc(F)cc2)cc1 (stereo not drawn) [CBK286442] | 90.3
16 | O=c1[nH]c(=O)n([C@H]2C[C@H](O)[C@@H](CO)O2)cc1I [CBK200650] | 96.5
17 | O=C(CCC1COc2ccccc2O1)Nc1ccc(C(=O)O)cc1 (stereo not drawn) [CBK269856] | 89.7
18 | CCOc1cc(CNCc2ccc(C(=O)O)cc2)ccc1OC [CBK270029C] | 89.7
19 | CC(C)c1nsc(NS(=O)(=O)c2cc(C(F)(F)F)cc(C(F)(F)F)c2)n1 [CBK051263] | 84.9
20 | CC1CCCCN1C(=O)CN1C(=O)[C@H]2CCCN2C(=O)c2ccccc21 (stereo partly drawn) [CBK286320] | 99.4
21 | Cc1cccc(N/C=C(/C#N)c2nc(-c3ccc4c(c3)OCO4)cs2)c1C [CBK263013] | 96.4
22 | CN(C)C(=O)C1CN(C(=O)C(C)(C)c2ccccc2F)C1 [CBK281970] | 113

Row | SMILES | viability at 28.5 h, 10 µM [%]
23 | Cc1ccc(-c2ncc(OCc3cccs3)nc2N)cc1C [CBK145146] | 101
24 | O=C(Cn1cnc2ccc([N+](=O)[O-])cc2c1=O)Nc1ccc(C(=O)O)cc1 [CBK297542] | 85.5
25 | NC(=O)CSc1nnc2ccc3ccccc3n12 [CBK287794] | 110
26 | Cc1cc(CC(=O)N2CCN(c3ncccn3)CC2)on1 [CBK144507] | 90
27 | COc1ccc(S(=O)(=O)Nc2cc(N3CCCC3)c3occc3c2)cc1OC [CBK061975] | 97.2
28 | NC(=O)CN1CC2(CCN(CC3COc4ccccc4O3)CC2)c2ccccc21 (stereo not drawn) [CBK143960] | 89.4
29 | CC(NC(=O)N(Cc1ccc(CN)cc1)Cc1ccc2ccccc2c1)c1cccc2ccccc12 (stereo not drawn) [CBK046092C] | 90
30 | O=C(O)CCc1ccc(-c2ccc(F)cc2)n1NC(=O)c1ccco1 [CBK268853] | 90.7
31 | COc1ccc(S(=O)(=O)N2CCN(C(=S)Nc3ccc(S(N)(=O)=O)cc3)CC2)cc1 [CBK266898] | 92.6
32 | O=c1ccc2cc(S(=O)(=O)Nc3ncc(Br)c4cccnc34)ccc2o1 [CBK073887] | 94
33 | O=C(N[C@@H](Cn1cc(Cl)c(=O)[nH]c1=O)C(=O)O)C1CCCC1 [CBK289658] | 113
34 | COc1cc(Nc2cc(-c3ccc4c(c3)OCO4)ncn2)cc(OC)c1OC [CBK090704] | 101
35 | Cc1noc(C)c1CC(=O)NCc1ccc(CN2CCCCC2)cc1 [CBK281422] | 93.6
36 | CC(C(=O)Nc1sc2c(c1C(=O)NCc1ccco1)CCCC2)N1C(=O)c2ccccc2C1=O (stereo not drawn) [CBK265603] | 86.6
37 | CN(C)S(=O)(=O)N(CC(=O)NCC1CCCO1)c1ccccc1 (stereo not drawn) [CBK268192] | 103
38 | Cc1ccc(C)n1-c1ccc(C(=O)OCC(=O)c2cccc([N+](=O)[O-])c2)cc1 [CBK264427] | 97.8
39 | CN(CC(=O)Nc1cc2ccccc2c(N2CCNCC2)n1)C(=O)c1ccccc1 [CBK028421T] | 93
40 | COc1ccc(CCCC(=O)Nc2cc(N3CCNCC3)nc(SC)n2)cc1OC [CBK050261T] | 101
41 | CCC(=O)OC1(C(=O)c2ccc(F)cc2)CCN(CCCC(c2ccc(F)cc2)c2ccc(F)cc2)CC1 [CBK025227C] | 84.3
42 | O=C(CSc1nc2ccccc2[nH]1)c1ccccc1 [CBK261298] | 92.9
43 | CCOCCCNC(=O)c1ncoc1-c1ccc(F)cc1 [CBK282353] | 92.6
44 | CCNC(=O)N1Cc2nc[nH]c2C[C@H]1C(=O)NCc1ccc(OC)cc1 [CBK288973] | 115

Row | SMILES | viability at 28.5 h, 10 µM [%]
45 | COc1cc(CN(C)Cc2cccc3ccccc23)c([N+](=O)[O-])cc1OC [CBK261850] | 89.3
46 | C#CCNC(=O)CC[C@H]1CNC(=O)[C@@H]2[C@@H](CCN2Cc2cccs2)N1C [CBK289033] | 103
47 | O=C(O)c1cc(C(=O)O)n(Cc2ccc(Cl)cc2Cl)n1 [CBK268283] | 103
48 | CC1CCCCN1C(=O)CCn1c(-c2ccncc2)cc2cccnc21 (stereo not drawn) [CBK282689] | 105
49 | Cc1cc(C)cc(Cn2cc(NCc3ccccc3)c(=O)[nH]c2=O)c1 [CBK288009] | 106
50 | O=C(O)c1cc2c(s1)CN(C1CCCCC1)C2 [CBK286885] | 96.2
51 | CCC(CC(=O)NCc1c(C)n[nH]c1C)c1c[nH]c2ccccc12 (stereo not drawn) [CBK282651] | 87.1
52 | COc1ccc(C(C)c2cc3c(cc2O)OCO3)cc1 (stereo not drawn) [CBK200100] | 90.3
53 | CC(C(=O)N1CCC(c2ccncc2)CC1)c1ccccc1 (stereo not drawn) [CBK285484] | 99.1
54 | O=C(NC1CCCCC1)N1C[C@@H]2C[C@H](C1)c1ccc(-c3cccnc3)c(=O)n1C2 [CBK289183] | 93.6
55 | COC(=O)c1c(NC(=S)NCc2cccnc2)sc(C)c1C [CBK267029] | 89.2
56 | Nc1nc(N)c(Cc2ccc(Cl)cc2Cl)c(N)n1 [CBK009425] | 94.7
57 | CCC(CN1CCOCC1)NC(=O)Cc1coc2c(C)c(C)ccc12 (stereo not drawn) [CBK282813] | 82.1
58 | Cc1ccc(C2(O)CCN(CCNC(=O)c3cccs3)CC2)cc1 [CBK283322] | 87.8
59 | CN(CCOc1ccccc1)c1cc(C2CC(N)C2)nc(N)n1 (stereo not drawn) [CBK306849] | 97
60 | O=C1CC[C@@H](C(=O)N2CCc3nc(-c4ccccc4F)sc3C2)N1 [CBK281891] | 82.1
61 | COC1C(O)C(CO)OC1n1cc(I)c(=O)[nH]c1=O (stereo not drawn) [CBK201211] | 95.1
62 | CN1CCN(C(=O)Cn2cc(C(=O)NC3CCCCC3)ccc2=O)C(c2ccccc2)C1 (stereo not drawn) [CBK286102] | 87.3
63 | O=C(NCc1ccsc1)N1CCCN(Cc2ccc(Cl)cc2)CC1 [CBK305450] | 86.4
64 | Cc1cc(C)n(CC(=O)N2CCCC2c2ccc(C)c(C)c2)c(=O)n1 (stereo not drawn) [CBK282991] | 99
65 | NC(=O)CC1C=CS(=O)(=O)C1 (stereo not drawn) [CBK019653] | 76.7
66 | C(=C\c1nccnc1OCCc1c[nH]c2ccccc12)/c1ccccc1 [CBK106872] | 91.7

Row | SMILES | viability at 28.5 h, 10 µM [%]
67 | CN1CCC(CNS(=O)(=O)c2cccc3c2OCC3)CC1=O (stereo not drawn) [CBK305465] | 114
68 | Cc1ccc(S(=O)(=O)Nc2ccc(S(=O)(=O)Nc3nccs3)cc2)c([N+](=O)[O-])c1 [CBK267410] | 85.9
69 | CC1=NN(c2nc(-c3ccc(Br)cc3)cs2)C(=O)C1/N=N/c1cccc(CO)c1 (stereo not drawn) [CBK262429] | 104
70 | Cc1ccc(NC2=NC3(N=C(N)N2)C(=O)N(C)c2ccccc23)cc1 (stereo not drawn) [CBK270157] | 84.9
71 | Cc1ccc(N(Cc2cc3ccccc3nc2O)C(=O)c2cccnc2)cc1 [CBK265442] | 85.5
72 | Cc1ccsc1CN1CCCCC1CO (stereo not drawn) [CBK026348] | 107
73 | O=C(O)c1ccnc2ccccc12 [CBK012261] | 88.2
74 | Cc1nnnn1-c1cc(NC(=O)NCCCn2ccnc2)ccc1F [CBK305349] | 92.1
75 | O=C(Cn1cc(Br)ccc1=O)NC1CCN(CCc2ccccc2)CC1 [CBK305887] | 99.5
76 | COc1ccc(-c2c(-c3ccc(F)cc3)[nH]c3[nH]c(=O)[nH]c(=O)c23)cc1 [CBK288232] | 111
77 | Cc1ccc2[nH]c(/C(C#N)=C\c3cn(CC(=O)Nc4ccccc4)c4ccccc34)nc2c1 [CBK267612] | 105
78 | CCc1nc2c(OCC(=O)c3ccc(Cl)cc3Cl)cccn2c1N(C)C(=O)C1CC1 [CBK147712] | 89.7
79 | CCCCNC(=O)Nc1ncc(-c2ccc(C#N)cc2)nc1-c1ccc(C(=O)N2CCOCC2)cc1 [CBK105766] | 91.1
80 | CCOc1cccc(OCC(=O)N2CCC(c3cc(C(=O)NC)c4ccccc4n3)C2)c1 (stereo not drawn) [CBK285896] | 81.5
81 | O=C(c1nc2ccccc2[nH]1)N1CCc2ccccc21 [CBK200411] | 87.8
82 | O=C(COC(=O)c1ccc2c(c1)C(=O)N(c1ccc(Oc3ccccc3)cc1)C2=O)c1ccc(Br)cc1 [CBK261607] | 105
83 | O=C(Nc1ccc(NC(=O)c2cc3ccccc3o2)cc1)c1ccc(-c2ccccc2)cc1 [CBK268887] | 107
84 | CC1(C)CC(NC(=O)c2cc([N+](=O)[O-])ccc2Cl)CC(C)(C)N1 [CBK263948] | 93.7
85 | CCC(C)Oc1ccccc1OCCN1C(=O)NC(C)(C)C1=O (stereo not drawn) [CBK267362] | 98.5

same assay, conditions: human, hela cells, % viability, bulk resorufin, single well

Row | SMILES | viability at 28.5 h, 10 µM [%]
86 | COc1cc(Cl)ccc1NC(=O)Oc1cccc2cnccc12 [CBK012882] | 79.9
87 | Cc1cc(Br)ccc1N1C(=O)NC(=O)/C(=C\c2ccc(-c3ccc(S(N)(=O)=O)cc3)o2)C1=O [CBK263413] | 97.4
